Data as given in PMC9230797, “Integration of a Physiologically Based Pharmacokinetic and Pharmacodynamic Model for Tegoprazan and Its Metabolite: Application for Predicting Food Effect and Intragastric pH Alterations” (Pharmaceutics, 2022).
“And” between values parts separate entries of the source, which are not always exact repeats. Equal values may be shown once. Read-outs that look alike come from different tables or passages of the source.

Legend:
[1] = system: Caco-2 cells; experiment: Caco-2 permeability assay; assay type: in vitro ADME; settings: pH 7.4/7.4, 10 µM; for Papp / Transport Rate: single replicates; for Recovery: single replicates A-C
Procedure: (§1) Caco-2 cells were cultured in DMEM supplemented with 20% FBS, 1% non-essential amino acids, and 1% penicillin-streptomycin. Caco-2 cells were seeded onto collagen-coated 12-Transwell membranes at a density of 5 × 10^5 cells/mL and incubated under optimal conditions (maintained at 37 °C in a humidified atmosphere with 5% CO2/95% air) for 21 days. The culture medium was replaced every second day. For the experiments, after the growth medium was removed, the attached cells were washed with pre-warmed HBSS (pH 7.4) and pre-incubated with HBSS for 20 min at 37 °C. The integrity of the cell monolayers was evaluated before and after the permeability experiments by measuring transepithelial electrical resistance (TEER) values using an epithelial volt/ohm meter (World Precision Instruments, Sarasota, FL, USA). Caco-2 cells with TEER values higher than 300 Ω∙cm^2 were used for permeability experiments, and alterations in TEER values were less than 10% in all cases (i.e., 417.3 ± 6.3 Ω∙cm^2 and 400.8 ± 3.5 Ω∙cm^2, before and after the permeability experiments, respectively).
(§2) To determine the apical to basal (A to B) permeability of tegoprazan, 0.5 mL of HBSS containing 10 µM tegoprazan and 1.5 mL of fresh HBSS were added to the apical and basal side of the insert, respectively. The insert was transferred to a new well that contained 1.5 mL of fresh HBSS every 15 min, for 1 h. Aliquots (0.3 mL) on the basal side were transferred to fresh tubes and stored at −80 °C until further analysis. To investigate B-to-A permeability, 1.5 mL of HBSS containing 10 µM tegoprazan and 0.5 mL of fresh HBSS were added to the basal and apical sides of the insert, respectively. Aliquots (0.3 mL) on the apical side were transferred to fresh tubes, and 0.3 mL of pre-warmed fresh HBSS was replaced every 15 min for 1 h. The transport study was performed for 1 h based on the linearity of the cumulative transported tegoprazan amount versus transport time. The cumulative transported amount was calculated as the sum of transported amounts for 0–15 min, 15–30 min, 30–45 min, and 45–60 min, and the transport rate of tegoprazan was the slope of the regression line derived from the cumulative transported amount versus time plot. The apparent permeability (Papp) was calculated from the following Equation (2):(2) Papp(10^−6cm/s)=transport rate (nmol/min)/concentration (μM)× area(cm^2)×60 s
(§3) Caco-2 and rCYP samples were quantified using LC-MS/MS (UPLC® I-class coupled with TQ-MS (Waters, Milford, MA, USA). The mobile phase comprised (a) 0.1% formic acid and (b) acetonitrile containing 0.1% formic acid. Gradient elution at a flow rate of 0.3 mL/min was applied. Tegoprazan, M1, and the internal standard (tegoprazan-d6) were optimized in electrospray ionization positive mode. Acetonitrile with 0.1 μM of tegoprazan-d6 was added to the collected Caco-2 or rCYP samples. Then, processed samples were centrifuged at 13,000× g for 20 min. After centrifugation, 100 μL of supernatant was transferred to an LC-MS vial and analyzed using LC-MS/MS. The analytical method was validated based on the Bioanalytical Method Validation Guidance for Industry published by the US Food and Drug Administration and the Guideline on Bioanalytical Method Validation published by the Korean Ministry of Food and Drug Safety (MFDS). Linearity was in the range of 0.1–20 µM, and the inter-batch accuracy and precision were in the ranges of 91.8–101.3% and 2.3–8.9%, respectively. The stability of tegoprazan was evaluated, and it satisfied the acceptance criteria (coefficient of variances was within 15%) under variable conditions including reinjection, processed sample stability (PSS), and short-term stability for the stock and sample.

[2] = Caco-2 permeability assay; assay type: in vitro ADME; settings: human
Procedure: as §1, §2, §3

Papp ([1]; A to B): 11.01 ×10⁻⁶ cm/s and 13.23 ×10⁻⁶ cm/s
Transport Rate ([1]; A to B): 0.56 nmol/h and 0.48 nmol/h
Recovery ([1]; A to B): 86.4%
Papp ([1]; B to A): 10.36 ×10⁻⁶ cm/s and 13.36 ×10⁻⁶ cm/s
Recovery ([1]; B to A): 88.7% and 78.3%
Papp at 1 h, 10 µM ([2]; Caco-2, pH 7.4, A to B, pH 7.4/7.4, 10 µM, read-out: Papp, Mean): 12.5 ×10⁻⁶ cm/s
recovery at 1 h, 10 µM ([2]; Caco-2, pH 7.4, A to B, pH 7.4/7.4, 10 µM, read-out: Recovery, Mean): 84.5%
recovery at 1 h, 10 µM ([2]; Caco-2, pH 7.4, A to B, pH 7.4/7.4, 10 µM, single replicates A-C, read-out: Recovery): 82.7%
Papp at 1 h, 10 µM ([2]; Caco-2, pH 7.4, A to B, pH 7.4/7.4, 10 µM, single replicates, read-out: Papp): 13.4 ×10⁻⁶ cm/s
Papp at 1 h, 10 µM ([2]; Caco-2, pH 7.4, B to A, pH 7.4/7.4, 10 µM, read-out: Papp, Mean): 11.7 ×10⁻⁶ cm/s
recovery at 1 h, 10 µM ([2]; Caco-2, pH 7.4, B to A, pH 7.4/7.4, 10 µM, read-out: Recovery, Mean): 84.3%
recovery at 1 h, 10 µM ([2]; Caco-2, pH 7.4, B to A, pH 7.4/7.4, 10 µM, single replicates A-C, read-out: Recovery): 85.9%
Papp at 1 h, 10 µM ([2]; Caco-2, pH 7.4, B to A, pH 7.4/7.4, 10 µM, single replicates, read-out: Papp): 11.4 ×10⁻⁶ cm/s
Papp at 1 h, 10 µM ([2]; Caco-2, pH 7.4, initial model value (experimental), read-out: Papp,caco-2): 12.5 ×10⁻⁶ cm/s
SMILES: Cc1nc2cc(C(=O)N(C)C)cc(O[C@H]3CCOc4cc(F)cc(F)c43)c2[nH]1 [tegoprazan]
Transport Rate ([1]; B to A): 0.49 nmol/h and 0.46 nmol/h and 0.53 nmol/h
